Data as given in patent US9556169B2, “Compounds and compositions for the treatment of parasitic diseases” (NOVARTIS AG, priority 2012, dated 2017).
Where two headings read alike, the source gives them in different places.

Key:
[1] = test system: Plasmodium berghei line expressing luciferase (Pb-luc) sporozoites; experiment: Liver stage P. berghei luciferase proliferation assay in CD81-GFP-HepG2 cells; assay type: cell-based
Protocol: Liver Stage P. berghei Luciferase Proliferation Assay
CD81-GFP-HepG2 cells (obtained from the lab of Dominique Mazier) were seeded into GNF custom Greiner plates (1536-well, white, TC-treated, solid bottom). A final density of 3000 cells/well was achieved by dispensing 5 ul per well of a 600,000 cells/mL resuspended in Assay Media (AM; phenol-red free DMEM, 2% FBS, 5×PSG) via a MicroFlo (Biotek; 5 ul dispense cassette). The seeded assay plates were incubated overnight at 37° C. in an incubator with 5% CO2. The following day, a 10 nL volume of compound was transferred acoustically (ECHO 525, Labcyte Inc.) to each well in the assay plate. Sporozoite forms of a Plasmodium berghei line expressing luciferase (Pb-luc) were dissected and purified from infected Anopheles stephensi mosquitoes (provided by the NYU insectary) as previously described by Meister et al. (Science, 2011). Purified sporozoites (spz) were stored at 250 spz/uL in chilled PBS supplemented with 3% BSA. 3 uL of Pb-luc spz solution was dispensed to each assay well using a Bottlevalve equipped with a custom, single-tip dispense head (GNF Systems). Assay plates were centrifuged at 330×g for 3 minutes to pellet the spz, then the assay plates were returned to the 37° C. incubator for 48 h. Luciferase signal, which corresponds with parasite proliferation, was detected by adding 2 uL of BrightGlo (Promega) to each well using the MicroFlo (Biotek; 1 ul cassette). Luminescence was immediately measured on an Envision MultiLabel Plate Reader (PerkinElmer).

[2] = test system: P. falciparum (NF54 or 3D7 strain); experiment: P. falciparum proliferation assay in infected human blood cells (SYBR Green); assay type: cell-based; conditions: Plasmodium falciparum, Erythrocyte, read-out: EC50 (nM), inhibitory efficacy in delaying P. falciparum proliferation in infected human blood cells
Protocol: Assay for P. falciparum Proliferation in Infected Human Blood Cells
Compounds of the invention can be assayed to measure their capacity to inhibit proliferation of P. falciparum parasitemia in infected red blood cells. This parasite proliferation assay measures the increase in parasite DNA content using a DNA intercalating dye, SYBR Green® (INVITROGEN®) which has a high affinity for double stranded DNA.
NF54 or 3D7 P. falciparum strain is grown in complete culturing media until parasitemia reaches 3% to 8% with O+ human erythrocytes. […] 20 μl of screening media is dispensed into 384 well assay plates. 50 nl of compounds of the invention (in DMSO), including antimalarial controls (mefloquine, pyrimethamine and artemisinin), are then transferred into the assay plates, as well as DMSO alone to serve as a negative control for inhibition. Then 30 μl of a suspension of a NF54 or 3D7 P. falciparum infected erythrocytes in screening media is dispensed into the assay plates such that the final hematocrit is 2.5% with a final parasitemia of 0.3%. The plates are placed in a 37° C. incubator for 72 hours in a low oxygen environment containing 93% N2, 4% CO2, and 3% O2 gas mixture. 10 μl of lysis buffer (saponin, triton-X, EDTA) containing a 10× solution of SYBR Green I® in RPMI media is dispensed into the plates. The plates are lidded and kept at room temperature overnight for the lysis of the infected red blood cells. The fluorescence intensity is measured (excitation 425 nm, emission 530 nm) using the Envision™ system (Perkin Elmer). The percentage inhibition of 50%, EC50, is calculated for each compound.

[3] = values marked * in Table 2, CD81-GFP-HepG2 cells, 48 h, luminescence, read-out: EC50 (nM), P. berghei luciferase Proliferation Assay
[4] = infected human erythrocytes, 72 hours, SYBR Green fluorescence
[5] = read-out: EC50, P. berghei luciferase Proliferation Assay

Structure (SMILES): CNC(=O)c1ccc(-c2cnn3ccc(C(=O)N(c4ccc(C)cn4)C4CC4)cc23)cc1 [Example 136, N-Cyclopropyl-3-(4-(methylcarbamoyl)phenyl)-N-(5-methylpyridin-2-yl)pyrazolo[1,5-a]pyridine-5-carboxamide]
- EC50 [1, 3]: 10 nM

Structure (SMILES): CNC(=O)c1ccc(-c2cnn3ccc(C(=O)N(c4ccc(C#N)cc4)C4CCC4)cc23)cn1 [Example 145, N-(4-Cyanophenyl)-N-cyclobutyl-3-(6-(methylcarbamoyl)pyridin-3-yl)pyrazolo[1,5-a]pyridine-5-carboxamide]
- EC50 [2, 4]: 12 nM
- EC50 [1, 3]: 8 nM

Structure (SMILES): CNC(=O)c1ccc(-c2cnn3ccc(C(=O)N(c4ccc(F)cn4)C(C)C)cc23)cc1 [Example 151, N-(5-fluoropyridin-2-yl)-N-isopropyl-3-(4-(methylcarbamoyl)phenyl)pyrazolo[1,5-a]pyridine-5-carboxamide]
- EC50 [2, 4]: 67 nM
- EC50 [1, 3]: 7 nM

Structure (SMILES): CNC(=O)c1ccc(-c2cnn3ccc(C(=O)N(c4ccc(C(F)(F)F)cn4)C(C)C)cc23)cc1 [Example 153, N-Isopropyl-3-(4-(methylcarbamoyl)phenyl)-N-(5-(trifluoromethyl)pyridin-2-yl)pyrazolo[1,5-a]pyridine-5-carboxamide]
- EC50 [2, 4]: 88 nM
- EC50 [1, 3]: 16 nM

Structure (SMILES): CCN(C(=O)c1ccn2ncc(-c3ccc(C(=O)NC)cc3)c2c1)c1ccc(C#N)c(OCCO)n1 [Example 162, N-(5-cyano-6-(2-hydroxyethoxyl)pyridin-2-yl)-N-ethyl-3-(4-(methylcarbamoyl)phenyl)pyrazolo[1,5-a]pyridine-5-carboxamide]
- EC50 [2, 4]: 9 nM
- EC50 [1, 3]: 8 nM

Structure (SMILES): CNC(=O)c1ccc(-c2cnn3ccc(C(=O)N(c4ccc(C#N)cn4)C4CC4)cc23)nc1 [Example 133, N-(5-Cyanopyridin-2-yl)-N-cyclopropyl-3-(5-(methylcarbamoyl)pyridin-2-yl)pyrazolo[1,5-a]pyridine-5-carboxamide]
- EC50 [2, 4]: 58 nM
- EC50 [1, 3]: 34 nM

Structure (SMILES): CNC(=O)c1ccc(-c2cnn3ccc(N(C(=O)c4ccc(C#N)cn4)C4CC4)cc23)cc1 [Example 147, 5-Cyano-N-cyclopropyl-N-(3-(4-(methylcarbamoyl)phenyl)pyrazolo[1,5-a]pyridin-5-yl) picolinamide]
- EC50 [2, 4]: 814 nM
- EC50 [1, 3]: 151 nM

Structure (SMILES): CNC(=O)c1ccc(-c2cnn3ccc(C(=O)N(c4ccc(C#N)cn4)C4CCC4)cc23)cn1 [Example 144, N-(5-Cyanopyridin-2-yl)-N-cyclobutyl-3-(6-(methylcarbamoyl)pyridin-3-yl)pyrazolo[1,5-a]pyridine-5-carboxamide]
- EC50 [2, 4]: 27 nM
- EC50 [1, 3]: 22 nM

Structure (SMILES): CNC(=O)c1ccc(-c2cnn3ccc(S(=O)(=O)N(C)c4ccc(C#N)cn4)cc23)cc1 [Example 163, 4-(5-(N-(5-Cyanopyridin-2-yl)-N-methylsulfamoyl)pyrazolo[1,5-a]pyridin-3-yl)-N-methyl benzamide]
- EC50 [2, 4]: 4 nM
- EC50 [1, 3]: 2 nM

Structure (SMILES): CNC(=O)c1ccc(-c2cnn3ccc(C(=O)N(c4ccc(C(F)(F)F)cn4)C(C)C)cc23)cn1 [Example 152, N-Isopropyl-3-(6-(methylcarbamoyl)pyridin-3-yl)-N-(5-(trifluoromethyl)pyridin-2-yl)pyrazolo[1,5-a]pyridine-5-carboxamide]
- EC50 [2, 4]: 228 nM
- EC50 [1, 3]: 182 nM

Structure (SMILES): CNC(=O)c1ccc(-c2cnn3ccc(N(C)C(=O)c4ccc(C#N)cn4)cc23)cc1 [Example 94, 5-cyano-N-methyl-N-(3-(4-(methylcarbamoyl)phenyl)pyrazolo[1,5-a]pyridin-5-yl)picolinamide]
- EC50 [2, 4]: 17 nM
- EC50 [1, 5]: ≤ 20 nM
- EC50 [1, 3]: 13 nM

Structure (SMILES): CNC(=O)c1ccc(-c2cnn3ccc(C(=O)N(NC)c4ccc(C#N)cc4)cc23)cn1 [Example 92, 5-(5-(1-(4-cyanophenyl)-2-methylhydrazinecarbonyl)pyrazolo[1,5-a]pyridin-3-yl)-N-methyl picolinamide]
- EC50 [2, 4]: 24 nM
- EC50 [1, 5]: ≤ 20 nM
- EC50 [1, 3]: 15 nM

Structure (SMILES): CNC(=O)c1ccc(-c2cnn3ccc(C(=O)N(c4ccc(C#N)cn4)C(C)C)cc23)nc1 [Example 154, N-(5-cyanopyridin-2-yl)-N-isopropyl-3-(5-(methylcarbamoyl)pyridin-2-yl)pyrazolo[1,5-a]pyridine-5-carboxamide]
- EC50 ([2]; 72 h): 200 nM
- EC50 [1, 3]: 36 nM

Structure (SMILES): CCN(C(=O)c1ccn2ncc(-c3ccc(C(=O)NC)nc3)c2c1)c1ccc(C(F)(F)F)cn1 [Example 157, N-ethyl-3-(6-(methylcarbamoyl)pyridin-3-yl)-N-(5-(trifluoromethyl)pyridin-2-yl)pyrazolo[1,5-a]pyridine-5-carboxamide]
- EC50 [2, 4]: 91 nM
- EC50 [1, 3]: 60 nM

Structure (SMILES): CNC(=O)c1ccc(-c2cnn3ccc(C(=O)N(c4ccc(F)cn4)C(C)C)cc23)cn1 [Example 156, N-(5-fluoropyridin-2-yl)-N-isopropyl-3-(6-(methylcarbamoyl)pyridin-3-yl)pyrazolo[1,5-a]pyridine-5-carboxamide]
- EC50 [2, 4]: 210 nM
- EC50 [1, 3]: 54 nM

Structure (SMILES): CNC(=O)c1ccc(-c2cnn3ccc(C(=O)N(c4ccc(C#N)c(OC)n4)C4CC4)cc23)cc1 [Example 149, N-(5-Cyano-6-methoxypyridin-2-yl)-N-cyclopropyl-3-(4-(methylcarbamoyl)phenyl)pyrazolo[1,5-a]pyridine-5-carboxamide]
- EC50 [2, 4]: 4 nM
- EC50 [1, 3]: 1 nM

Structure (SMILES): CNC(=O)c1ccc(-c2cnn3ccc(C(=O)N(c4ccc(C#N)cn4)C(C)C)cc23)cn1 [Example 148, N-(5-Cyanopyridin-2-yl)-N-isopropyl-3-(6-(methylcarbamoyl)pyridin-3-yl)pyrazolo[1,5-a]pyridine-5-carboxamide]
- EC50 [2, 4]: 67 nM
- EC50 [1, 3]: 18 nM

Structure (SMILES): CNC(=O)c1ccc(-c2cnn3ccc(C(=O)N(c4ccc(C(F)(F)F)cn4)C4CCC4)cc23)cn1 [Example 161, N N-cyclobutyl-3-(6-(methylcarbamoyl)pyridin-3-yl)-N-(5-(trifluoromethyl)pyridin-2-yl)pyrazolo[1,5-a]pyridine-5-carboxamide]
- EC50 [2, 4]: 68 nM
- EC50 [1, 3]: 41 nM

Structure (SMILES): CNC(=O)c1ccc(-c2cnn3ccc(C(=O)N(c4ccc(C#N)cn4)C4CCC4)cc23)nc1 [Example 155, N-(5-Cyanopyridin-2-yl)-N-cyclobutyl-3-(5-(methylcarbamoyl)pyridin-2-yl)pyrazolo[1,5-a]pyridine-5-carboxamide]
- EC50 ([2]; 72 h): 82 nM
- EC50 [1, 3]: 21 nM

Structure (SMILES): CCN(C(=O)c1ccn2ncc(-c3ccc(S(C)(=O)=O)cc3)c2c1)c1ccc(C#N)cn1 [Example 158, N-(5-cyanopyridin-2-yl)-N-ethyl-3-(4-(methylsulfonyl)phenyl)pyrazolo[1,5-a]pyridine-5-carboxamide]
- EC50 [2, 4]: 111 nM
- EC50 [1, 3]: 11 nM

Structure (SMILES): CNC(=O)c1ccc(-c2cnn3ccc(C(=O)N(c4ccc(C#N)cc4)C4CC4)cc23)nc1 [Example 141, N-(4-Cyanophenyl)-N-cyclopropyl-3-(5-(methylcarbamoyl)pyridin-2-yl)pyrazolo[1,5-a]pyridine-5-carboxamide]
- EC50 ([2]; 72 h): 65 nM
- EC50 [1, 3]: 17 nM

Structure (SMILES): CCN(C(=O)c1ccn2ncc(-c3ccc(C(=O)NC)nc3)c2c1)c1ccc(F)cn1 [Example 159, N-ethyl-N-(5-fluoropyridin-2-yl)-3-(6-(methylcarbamoyl)pyridin-3-yl)pyrazolo[1,5-a]pyridine-5-carboxamide]
- EC50 [2, 4]: 56 nM
- EC50 [1, 3]: 43 nM

Structure (SMILES): CCN(C(=O)c1ccn2ncc(-c3ccc(C(=O)NC)nc3)c2c1)c1ccc(C#N)cn1 [Example 150, N-(5-cyanopyridin-2-yl)-N-ethyl-3-(6-[methylcarbamoyl]pyridin-3-yl)pyrazolo[1,5-a]pyridine-5-carboxamide]
- EC50 [2, 4]: 51 nM
- EC50 [1, 3]: 19 nM
